Target: T1, human PAH with the R408W mutation (Homo sapiens, UniProt P00439, R408W)
T1 construct: expressed in transfected cells
T1 sequence (P00439 1-452 R408W): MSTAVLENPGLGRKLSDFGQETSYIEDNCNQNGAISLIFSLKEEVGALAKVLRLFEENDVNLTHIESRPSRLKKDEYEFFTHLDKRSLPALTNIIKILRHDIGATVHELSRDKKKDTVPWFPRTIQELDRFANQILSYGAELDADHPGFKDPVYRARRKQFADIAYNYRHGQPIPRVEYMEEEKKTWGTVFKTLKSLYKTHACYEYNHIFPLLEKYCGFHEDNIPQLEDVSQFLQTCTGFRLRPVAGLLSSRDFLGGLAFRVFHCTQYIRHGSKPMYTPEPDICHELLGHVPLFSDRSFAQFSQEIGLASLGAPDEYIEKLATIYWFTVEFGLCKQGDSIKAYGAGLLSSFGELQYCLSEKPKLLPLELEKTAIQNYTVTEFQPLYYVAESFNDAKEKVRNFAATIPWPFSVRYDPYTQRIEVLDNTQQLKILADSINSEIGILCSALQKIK
Test: Cell Based Phenylalanine Flux Assay
Details: A375 cells expressing human R408W PAH; 24 hrs compound incubation; 13C-Tyrosine by LC-MS; average where tested multiple times; read-out: AC50

SMILES	AC50
CC(C)(C)OC(=O)N1CC(c2nnc(C(=O)N3CCc4[nH]cnc4[C@H]3c3nc4ccccc4s3)o2)C1 [Example 1893, (S)-tert-butyl 3-(5-(4-(benzo[d]thiazol-2-yl)-4,5,6,7-tetrahydro-1H-imidazo[4,5-c]pyridine-5-carbonyl)-1,3,4-oxadiazol-2-yl)azetidine-1-carboxylate]	0.5 to 1 µM
CC(C)(C)OC(=O)N1CC(c2nnc(C(=O)N3CCc4[nH]cnc4[C@@H]3c3nc4ccccc4s3)o2)C1 [Example 1894, (R)-tert-butyl 3-(5-(4-(benzo[d]thiazol-2-yl)-4,5,6,7-tetrahydro-1H-imidazo[4,5-c]pyridine-5-carbonyl)-1,3,4-oxadiazol-2-yl)azetidine-1-carboxylate]	1 to 5 µM
O=C(c1cnn(-c2ccccn2)c1Cl)N1CCc2[nH]cnc2[C@H]1c1nc2ccccc2s1 [Example 1895]	0.5 to 1 µM
O=C(c1cnn(-c2ccccn2)c1Cl)N1CCc2[nH]cnc2[C@@H]1c1nc2ccccc2s1 [Example 1896, (R)-(4-(benzo[d]thiazol-2-yl)-6,7-dihydro-1H-imidazo[4,5-c]pyridin-5(4H)-yl)(5-chloro-1-(pyridin-2-yl)-1H-pyrazol-4-yl)methanone]	1 to 5 µM
O=C(c1nnc(-c2cc[nH]n2)o1)N1CCc2[nH]cnc2[C@H]1c1nc2ccccc2s1 [Example 1899]	< 0.5 µM
O=C(c1nnc(-c2cc[nH]n2)o1)N1CCc2[nH]cnc2[C@@H]1c1nc2ccccc2s1 [Example 1900, (R)-(5-(1H-pyrazol-3-yl)-1,3,4-oxadiazol-2-yl)(4-(benzo[d]thiazol-2-yl)-6,7-dihydro-1H-imidazo[4,5-c]pyridin-5(4H)-yl)methanone]	1 to 5 µM
O=C(c1nnc(-c2cc(C(F)(F)F)ccn2)o1)N1CCc2[nH]cnc2[C@@H]1c1nc2c(F)cccc2s1 [Example 1905, (R)-(4-(4-fluorobenzo[d]thiazol-2-yl)-6,7-dihydro-1H-imidazo[4,5-c]pyridin-5(4H)-yl)(5-(4-(trifluoromethyl)pyridin-2-yl)-1,3,4-oxadiazol-2-yl)methanone]	0.5 to 1 µM
O=C(c1cn(-c2ccccn2)nc1Cl)N1CCc2[nH]cnc2[C@H]1c1nc2ccccc2s1 [Example 1907]	0.5 to 1 µM
O=C(c1cn(-c2ccccn2)nc1Cl)N1CCc2[nH]cnc2[C@@H]1c1nc2ccccc2s1 [Example 1908, (R)-(4-(benzo[d]thiazol-2-yl)-6,7-dihydro-1H-imidazo[4,5-c]pyridin-5(4H)-yl)(3-chloro-1-(pyridin-2-yl)-1H-pyrazol-4-yl)methanone]	1 to 5 µM
O=C(C1CN(c2ncccc2F)C1)N1CCc2[nH]cnc2[C@H]1c1nc2ccccc2s1 [Example 1909]	0.5 to 1 µM
O=C(C1CN(c2ncccc2F)C1)N1CCc2[nH]cnc2[C@@H]1c1nc2ccccc2s1 [Example 1910, (R)-(4-(benzo[d]thiazol-2-yl)-6,7-dihydro-1H-imidazo[4,5-c]pyridin-5(4H)-yl)(1-(3-fluoropyridin-2-yl)azetidin-3-yl)methanone]	> 5 µM
O=C(c1nnc(-c2cn[nH]c2)o1)N1CCc2[nH]cnc2[C@H]1c1nc2ccccc2s1 [Example 1921]	0.5 to 1 µM
O=C(c1nnc(-c2cn[nH]c2)o1)N1CCc2[nH]cnc2[C@@H]1c1nc2ccccc2s1 [Example 1922, (R)-(5-(1H-pyrazol-4-yl)-1,3,4-oxadiazol-2-yl)(4-(benzo[d]thiazol-2-yl)-6,7-dihydro-1H-imidazo[4,5-c]pyridin-5(4H)-yl)methanone]	1 to 5 µM

Further lines, results first:

AC50	SMILES
< 0.5 µM	CC(C)(O)c1nc(Br)c(C(=O)N2CCc3[nH]cnc3[C@H]2c2nc3c(F)cccc3s2)o1 [Example 1897, (S)-(4-bromo-2-(2-hydroxypropan-2-yl)oxazol-5-yl)(4-(4-fluorobenzo[d]thiazol-2-yl)-6,7-dihydro-1H-imidazo[4,5-c]pyridin-5(4H)-yl)methanone]
1 to 5 µM	CC(C)(O)c1nc(Br)c(C(=O)N2CCc3[nH]cnc3[C@@H]2c2nc3c(F)cccc3s2)o1 [Example 1898, (R)-(4-bromo-2-(2-hydroxypropan-2-yl)oxazol-5-yl)(4-(4-fluorobenzo[d]thiazol-2-yl)-6,7-dihydro-1H-imidazo[4,5-c]pyridin-5(4H)-yl)methanone]
0.5 to 1 µM	O=C(c1nnc(-c2ncccc2F)o1)N1CCc2[nH]cnc2[C@@H]1c1nc2c(F)cccc2s1 [Example 1901, (R)-(4-(4-fluorobenzo[d]thiazol-2-yl)-6,7-dihydro-1H-imidazo[4,5-c]pyridin-5(4H)-yl)(5-(3-fluoropyridin-2-yl)-1,3,4-oxadiazol-2-yl)methanone]
< 0.5 µM	O=C(c1nnc(-c2ncccc2F)o1)N1CCc2[nH]cnc2[C@H]1c1nc2c(F)cccc2s1 [Example 1902, (S)-(4-(4-fluorobenzo[d]thiazol-2-yl)-6,7-dihydro-1H-imidazo[4,5-c]pyridin-5(4H)-yl)(5-(3-fluoropyridin-2-yl)-1,3,4-oxadiazol-2-yl)methanone]
0.5 to 1 µM	Cc1ccc(-c2nnc(C(=O)N3CCc4[nH]cnc4[C@@H]3c3nc4c(F)cccc4s3)o2)nc1 [Example 1903, (R)-(4-(4-fluorobenzo[d]thiazol-2-yl)-6,7-dihydro-1H-imidazo[4,5-c]pyridin-5(4H)-yl)(5-(5-methylpyridin-2-yl)-1,3,4-oxadiazol-2-yl)methanone]
< 0.5 µM	Cc1ccc(-c2nnc(C(=O)N3CCc4[nH]cnc4[C@H]3c3nc4c(F)cccc4s3)o2)nc1 [Example 1904, (S)-(4-(4-fluorobenzo[d]thiazol-2-yl)-6,7-dihydro-1H-imidazo[4,5-c]pyridin-5(4H)-yl)(5-(5-methylpyridin-2-yl)-1,3,4-oxadiazol-2-yl)methanone]
< 0.5 µM	O=C(c1nnc(-c2cc(C(F)(F)F)ccn2)o1)N1CCc2[nH]cnc2[C@H]1c1nc2c(F)cccc2s1 [Example 1906, (S)-(4-(4-fluorobenzo[d]thiazol-2-yl)-6,7-dihydro-1H-imidazo[4,5-c]pyridin-5(4H)-yl)(5-(4-(trifluoromethyl)pyridin-2-yl)-1,3,4-oxadiazol-2-yl)methanone]
0.5 to 1 µM	Cc1nc([C@H](C)O)oc1C(=O)N1CCc2[nH]cnc2[C@H]1c1nc2c(F)cccc2s1 [Example 1911, ((S)-4-(4-fluorobenzo[d]thiazol-2-yl)-6,7-dihydro-1H-imidazo[4,5-c]pyridin-5(4H)-yl)(2-((S)-1-hydroxyethyl)-4-methyloxazol-5-yl)methanone]
> 5 µM	Cc1nc([C@H](C)O)oc1C(=O)N1CCc2[nH]cnc2[C@@H]1c1nc2c(F)cccc2s1 [Example 1912, ((R)-4-(4-fluorobenzo[d]thiazol-2-yl)-6,7-dihydro-1H-imidazo[4,5-c]pyridin-5(4H)-yl)(2-((S)-1-hydroxyethyl)-4-methyloxazol-5-yl)methanone]
0.5 to 1 µM	Cc1nc(C2(O)CCC2)oc1C(=O)N1CCc2[nH]cnc2[C@H]1c1nc2c(F)cccc2s1 [Example 1913, (S)-(4-(4-fluorobenzo[d]thiazol-2-yl)-6,7-dihydro-1H-imidazo[4,5-c]pyridin-5(4H)-yl)(2-(1-hydroxycyclobutyl)-4-methyloxazol-5-yl)methanone]
1 to 5 µM	Cc1nc(C2(O)CCC2)oc1C(=O)N1CCc2[nH]cnc2[C@@H]1c1nc2c(F)cccc2s1 [Example 1914, (R)-(4-(4-fluorobenzo[d]thiazol-2-yl)-6,7-dihydro-1H-imidazo[4,5-c]pyridin-5(4H)-yl)(2-(1-hydroxycyclobutyl)-4-methyloxazol-5-yl)methanone]
> 5 µM	COC(C)(C)c1nc(C)c(C(=O)N2CCc3[nH]cnc3[C@@H]2c2nc3c(F)cccc3s2)o1 [Example 1915, (R)-(4-(4-fluorobenzo[d]thiazol-2-yl)-6,7-dihydro-1H-imidazo[4,5-c]pyridin-5(4H)-yl)(2-(2-methoxypropan-2-yl)-4-methyloxazol-5-yl)methanone]
1 to 5 µM	COC(C)(C)c1nc(C)c(C(=O)N2CCc3[nH]cnc3[C@H]2c2nc3c(F)cccc3s2)o1 [Example 1916, (S)-(4-(4-fluorobenzo[d]thiazol-2-yl)-6,7-dihydro-1H-imidazo[4,5-c]pyridin-5(4H)-yl)(2-(2-methoxypropan-2-yl)-4-methyloxazol-5-yl)methanone]
0.5 to 1 µM	Cn1nc(CF)cc1C(=O)N1CCc2[nH]cnc2[C@H]1c1nc2c(F)cccc2s1 [Example 1917, (S)-(4-(4-fluorobenzo[d]thiazol-2-yl)-6,7-dihydro-1H-imidazo[4,5-c]pyridin-5(4H)-yl)(3-(fluoromethyl)-1-methyl-1H-pyrazol-5-yl)methanone]
1 to 5 µM	Cn1nc(CF)cc1C(=O)N1CCc2[nH]cnc2[C@@H]1c1nc2c(F)cccc2s1 [Example 1918, (R)-(4-(4-fluorobenzo[d]thiazol-2-yl)-6,7-dihydro-1H-imidazo[4,5-c]pyridin-5(4H)-yl)(3-(fluoromethyl)-1-methyl-1H-pyrazol-5-yl)methanone]
0.5 to 1 µM	Cc1c(C(=O)N2CCc3[nH]cnc3[C@H]2c2nc3c(F)cccc3s2)cnn1CC(F)(F)F [Example 1919, (S)-(4-(4-fluorobenzo[d]thiazol-2-yl)-6,7-dihydro-1H-imidazo[4,5-c]pyridin-5(4H)-yl)(5-methyl-1-(2,2,2-trifluoroethyl)-1H-pyrazol-4-yl)methanone]
> 5 µM	Cc1c(C(=O)N2CCc3[nH]cnc3[C@@H]2c2nc3c(F)cccc3s2)cnn1CC(F)(F)F [Example 1920, (R)-(4-(4-fluorobenzo[d]thiazol-2-yl)-6,7-dihydro-1H-imidazo[4,5-c]pyridin-5(4H)-yl)(5-methyl-1-(2,2,2-trifluoroethyl)-1H-pyrazol-4-yl)methanone]

From patent US20250171438A1 (Agios Pharmaceuticals, Inc., priority 2022, published 2025)
